This note sets out measurements from patent publication US6867185B2 (Bristol-Myers Squibb Company, priority 2001, dated 2005).

Counter-ions that a name gives are not always drawn. Like-named read-outs stand apart in the source and are kept apart here.

One may read the IC50 as the concentration that inhibits the measured activity by half. The EC50 is the midpoint of the concentration-response curve.

The conditions of series [1]: rcm bond, 1,2-dichloroethane.
For series [2] the following is noted: rcm bond, 1,2-DCE.
In series [3] the target is T1, HCV NS3/4A protease complex, BMS strain (genotype 1a) (Hepatitis C virus genotype 1a, UniProt P27958, C1454S/C1711G).
T1 construct: recombinant HCV NS3/4A protease complex (amino'acids 1027 to 1711); inferred from the pET21b vector and Ni-NTA purification; made in house; host or cells: Escherichia coli BL21 (DE3), pET21b
In words: Recombinant HCV NS3/4A protease complex FRET peptide assay (BMS strain). The settings on record: IC50, HCV NS3/4A protease FRET assay in vitro; IC50 ranges. The format is biochemical. The procedure, abridged: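 Enzyme was NS3/4A complex (aa 1027-1711) from genotype 1a BMS strain, carrying C1454S and C1711G mutations plus a three-lysine tail, expressed in E. coli and Ni-NTA/size-exclusion purified to >90% purity.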

Series [4] deals with HCV replicon in Huh7 cells. Briefly: HCV replicon cell-based assay (replicon FRET assay). On the set-up: species or system HCV strain 1B. The settings on record: Hepatitis C virus, Huh-7, HCV replicon cell assay; EC50 ranges. Summed up:
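Huh7 cells carrying a genotype 1b subgenomic replicon (neo, NS3–NS5B) were treated with compound for 4 days at 37 °C in 0.5% DMSO final. Lysates with 10 μM RET S1 FRET peptide and 150 mM NaCl were read kinetically at 340/490 nm over 21 cycles. EC50 was derived as for the enzyme IC50.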
In general terms: A replicon is a self-replicating genome or part of one, used to study replication in cells.

[5] abbreviates: from 1-{[1-(2(S)-tert-butoxycarbonylamino-oct-7-enoyl)-4-(7-methoxy-2-phenylquinolin-4(R)-yloxy)-pyrrolidine-2(S)-carbonyl]-1(R)-amino]-2(S)-vinyl-cyclopropanecarboxylic acid ethyl ester, 14-membered ring, Grubbs catalyst (275 + 225 mg).

T1 sequence (P27958 1027-1711 C1454S/C1711G, one chain of several): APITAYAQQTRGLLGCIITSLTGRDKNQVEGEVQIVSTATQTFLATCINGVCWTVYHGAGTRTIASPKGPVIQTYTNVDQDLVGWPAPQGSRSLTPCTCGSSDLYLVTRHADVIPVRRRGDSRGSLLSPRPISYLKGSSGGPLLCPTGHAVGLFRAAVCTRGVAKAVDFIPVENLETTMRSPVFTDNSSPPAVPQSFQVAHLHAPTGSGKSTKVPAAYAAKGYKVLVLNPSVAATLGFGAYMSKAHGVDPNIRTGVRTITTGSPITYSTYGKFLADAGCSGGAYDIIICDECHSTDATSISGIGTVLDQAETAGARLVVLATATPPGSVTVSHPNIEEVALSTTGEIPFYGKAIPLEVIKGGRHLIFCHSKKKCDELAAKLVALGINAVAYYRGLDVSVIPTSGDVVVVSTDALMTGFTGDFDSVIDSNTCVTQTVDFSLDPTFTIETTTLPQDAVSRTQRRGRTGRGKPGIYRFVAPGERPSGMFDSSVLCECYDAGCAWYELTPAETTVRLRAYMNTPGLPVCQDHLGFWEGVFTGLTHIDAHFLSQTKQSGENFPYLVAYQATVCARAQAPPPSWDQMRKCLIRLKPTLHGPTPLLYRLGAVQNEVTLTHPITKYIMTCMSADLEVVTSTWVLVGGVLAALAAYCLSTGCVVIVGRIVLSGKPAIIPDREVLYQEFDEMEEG

Molecule `CCOC(=O)[C@@]12C[C@H]1C=CCC[C@H](NC(=O)OC(C)(C)C)C(=O)N1C[C@H](Oc3cc(-c4ccccc4)nc4cc(OC)ccc34)C[C@H]1C(=O)N2` yielded a ring closure, yield of all isomers in series [1] (from C=CCC[C@H](NC(=O)OC(C)(C)C)C(=O)N1C[C@H](Oc2cc(-c3ccccc3)nc3cc(OC)ccc23)C[C@H]1C(=O)N[C@]1(C(=O)OCC)C[C@H]1C=C, Grubbs catalyst, 2.02 mM, 83.0 °C, 15.0 h) of 46%.

In series [1] (from C=CCCCCC[C@H](NC(=O)OC(C)(C)C)C(=O)N1C[C@H](Oc2ccnc3cc(OC)ccc23)C[C@H]1C(=O)N[C@]1(C(=O)NS(=O)(=O)C2CC2)C[C@H]1C=C, Grubbs catalyst, 1.02 mM, 83.0 °C, 10.0 h), `COc1ccc2c(O[C@@H]3C[C@H]4C(=O)N[C@]5(C(=O)NS(=O)(=O)C6CC6)C[C@H]5C=CCCCCC[C@H](NC(=O)OC(C)(C)C)C(=O)N4C3)ccnc2c1` gave a ring closure, yield of all isomers of 1.9%.

Regarding `CCOC(=O)[C@@]12C[C@H]1/C=C/CC[C@H](NC(=O)OC(C)(C)C)C(=O)N1C[C@H](Oc3cc(-c4ccccc4)nc4cc(OC)ccc34)C[C@H]1C(=O)N2`, in series [2] (from 1-{[1-(2(S)-tert-butoxycarbonylamino-hex-5-enoyl)-4-(7-methoxy-2-phenyl-quinolin-4(R)-yloxy)-pyrroiidine-2(S)-carbonyl]-1(R)-amino}-2(S)-vinyl-cyclopropanecarboxylic acid ethyl ester, 12-membered ring, Grubbs catalyst (2 x 70 mg), 2.02 mM), the ring closure, isolated yield was found to be 46%.

Turning to `CCOC(=O)[C@@]12CC1/C=C/CCCC[C@H](C(=O)OC(C)(C)C)C(=O)N1C[C@H](Oc3cc(-c4ccccc4)nc4cc(OC)ccc34)C[C@@]1(N)C(=O)N2` (stereo partly shown), the ring closure, isolated yield in series [2] (setting [5]) amounted to 8%.

On to `CCOC(=O)[C@@]12C[C@H]1/C=C\CCCC[C@H](NC(=O)OC(C)(C)C)C(=O)N1C[C@H](Oc3cc(-c4ccccc4)nc4cc(OC)ccc34)C[C@H]1C(=O)N2`, for which the ring closure, isolated yield stood at 20% in series [2] (setting [5]) and 52% in series [2] (from 1-{[1-(2(S)-tert-butoxycarbonylamino-oct-7-enoyl)-4-(7-methoxy-2-phenylquinolin-4(R)-yloxy)pyrrolidine-2(S)-carbonyl]-1(R)-amino]-2(S)-vinylcyclopropanecarboxylic acid ethyl ester, 14-membered ring, Grubbs catalyst (150 + 140 + 140 mg), 0.77 mM).

Molecule `CCOC(=O)[C@@]12C[C@H]1C=CCCC[C@H](NC(=O)OC(C)(C)C)C(=O)N1C[C@H](Oc3cc(-c4ccccc4)nc4cc(OC)ccc34)C[C@H]1C(=O)N2` registered a ring closure, yield of all isomers in series [1] (from C=CCCC[C@H](NC(=O)OC(C)(C)C)C(=O)N1C[C@H](Oc2cc(-c3ccccc3)nc3cc(OC)ccc23)C[C@H]1C(=O)N[C@]1(C(=O)OCC)C[C@H]1C=C, Grubbs catalyst, 2.02 mM, 83.0 °C, 15.0 h) of 49%.

Regarding `CCOC(=O)[C@@]12C[C@H]1/C=C\CCCCC[C@H](NC(=O)OC(C)(C)C)C(=O)N1C[C@H](Oc3cc(-c4ccccc4)nc4cc(OC)ccc34)C[C@H]1C(=O)N2`, the ring closure, isolated yield in series [2] (from 1-{[1-(2(S)-tert-butoxycarbonylamino-non-8-enoyl)-4-(7-methoxy-2-phenylquinolin-4(R)-yloxy)-pyrrolidine-2(S)-carbonyl]-1(R)-amino]-2 (5)-vinylcyclopropanecarboxylic acid ethyl ester, 15-membered ring, Grubbs catalyst (3 x 150 mg), 0.83 mM) was found to be 75%.

“(1S,4R,6S,12S,16R)-7-trans-12-tert-butoxycarbonylamino-16-(7-methoxy-2-phenylquinolin-4-yloxy)-2,13-dioxo-3,14-diazatricyclo[12.3.0.0^4,6]hepta-dec-7-ene-4-carboxylic acid ethyl ester”: the ring closure, isolated yield in series [2] (13-membered ring, Grubbs catalyst (2 x 75 mg)) is 49%.

The molecule `CCOC(=O)[C@@]12C[C@H]1C=CCCCCC[C@H](NC(=O)OC(C)(C)C)C(=O)N1C[C@H](Oc3cc(-c4ccccc4)nc4cc(OC)ccc34)C[C@H]1C(=O)N2` yielded a ring closure, yield of all isomers in series [1] (from C=CCCCCC[C@H](NC(=O)OC(C)(C)C)C(=O)N1C[C@H](Oc2cc(-c3ccccc3)nc3cc(OC)ccc23)C[C@H]1C(=O)N[C@]1(C(=O)OCC)C[C@H]1C=C, Grubbs catalyst, 0.829 mM, 83.0 °C, 15.0 h) of 75%.

On to `CCOC(=O)[C@@]12C[C@H]1C=CCCCC[C@H](NC(=O)OC(C)(C)C)C(=O)N1C[C@H](Oc3cc(-c4ccccc4)nc4cc(OC)ccc34)C[C@H]1C(=O)N2`, for which the ring closure, yield of all isomers in series [1] (from C=CCCCC[C@H](NC(=O)OC(C)(C)C)C(=O)N1C[C@H](Oc2cc(-c3ccccc3)nc3cc(OC)ccc23)C[C@H]1C(=O)N[C@]1(C(=O)OCC)C[C@H]1C=C, Grubbs catalyst, 0.772 mM, 83.0 °C, 21.0 h) came out at 52%; in series [1] (from C=CCCCC[C@H](NC(=O)OC(C)(C)C)C(=O)N1C[C@H](Oc2cc(-c3ccccc3)nc3cc(OC)ccc23)C[C@H]1C(=O)N[C@]1(C(=O)OCC)C[C@H]1C=C, Grubbs catalyst, 2.02 mM, 83.0 °C, 15.0 h), 28%.

In the case of `COc1ccc2c(O[C@@H]3C[C@H]4C(=O)N[C@]5(C(=O)NS(=O)(=O)C6CC6)CC5/C=C\CCCC[C@H](N)C(=O)N4C3)cc(-c3ccccc3)nc2c1` (stereo partly drawn) [Compound 8, (1S,4R,6S,13S,17R)-7-cis-Cyclopropanesulfonic acid [13-amino-17-(7-methoxy-2-phenylquinolin-4-yloxy)-2,14-dioxo-3,15-diazatricyclo[13.3.0.0^4,6]octadec-7-ene-4-carbonyl]amide dihydrochloride], the IC50 in series [3] was < 50 nM. In series [4], the EC50 was < 500 nM.

With `CC(C)(C)OC(=O)N[C@H]1CCCCC/C=C\[C@@H]2C[C@@]2(C(=O)NS(=O)(=O)C2CC2)NC(=O)[C@@H]2C[C@@H](Oc3ccnc4c(C(F)(F)F)cccc34)CN2C1=O` [Compound 33, (1S,4R,6S,14S,18R)-7-cis-[4-Cyclopropanesulfonylaminocarbonyl-2,15-dioxo-18-(8-trifluoromethylquinol-in-4-yloxy)-3,16-diazatricyclo[14.3.0.04,6]nonadec-7-en-14-yl]-carbamic acid tert-butyl ester], in series [3], the IC50 is < 50 nM. The EC50 in series [4] is < 50 nM.

For `COc1ccc2c(O[C@@H]3C[C@H]4C(=O)N[C@]5(C(=O)NS(=O)(=O)C6CC6)CC5CCCCCC[C@H](NC(=O)O[C@H]5CCOC5)C(=O)N4C3)cc(-c3ccccc3)nc2c1` (stereo partly drawn) [Compound 26, (1S,4R,6R,14S,17R,3′S)-[4-Cyclopropanesulfonyl-aminocarbonyl-17-(7-methoxy-2-phenylquinolin-4-yloxy)-2,14-dioxo-3,15-diazatricyclo[13.3.0.0^4,6]-octadec-13-yl]-carbamic acid tetrahydrofuran-3′-yl ester], the IC50 in series [3] was < 50 nM. The EC50 in series [4] is < 50 nM.

On to `CCOC(=O)[C@@]12C[C@H]1C=CCCCSC[C@@H](NC(=O)OC(C)(C)C)C(=O)N1C[C@H](Oc3cc(-c4ccccc4)nc4cc(OC)ccc34)C[C@H]1C(=O)N2`, for which the ring closure, yield of all isomers in series [1] (from C=CCCCSC[C@@H](NC(=O)OC(C)(C)C)C(=O)N1C[C@H](Oc2cc(-c3ccccc3)nc3cc(OC)ccc23)C[C@H]1C(=O)N[C@]1(C(=O)OCC)C[C@H]1C=C, Grubbs II (tricyclohexylphosphine[1,3-bis(2,4,6-trimethylphenyl)-4,5-dihydroimidazol-2-ylidene][benzylidene]ruthenium(IV) dichloride), 3.48 mM, 45.0 °C, 21.0 h) is 42%.
